Measurements: patent US9902696B2, “1,4-substituted piperidine derivatives” (Cephalon, Inc., priority 2015, dated 2018)
pIC50: −log10 of the molar value. Where a name gives a salt, the structure may show the parent alone. Read-outs that look alike come from different tables or passages of the source.

Target: T1, recombinant human baculovirus-expressed GST-tagged FASN (Homo sapiens, UniProt P49327)
T1 construct: GST
Assay: FASN enzyme activity assay, fluorescence-based detection of CoA with CPM
Type: biochemical
Details: 5 nM FASN, 150 μM NADPH, 10 μM acetyl-CoA, 25 μM malonyl-CoA, 90 minutes incubation
Summary of the method: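 Human GST-tagged FASN, baculovirus-expressed (5 nM), in 50 mM HEPES pH 7.5 with 150 μM NADPH, 10 μM acetyl-CoA, 25 μM malonyl-CoA, 0.5% DMSO; malonyl-CoA-started, 90 min. Released CoA detected with CPM (50 μM dilution), 30 min, fluorescence ex 390/em 530. IC50 from variable-slope sigmoidal fit of % inhibition versus log concentration.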

[1] = read-out: IC50 data for Compounds of Formulae I-V/V(a): Activity
[2] = read-out: IC50 data for Additional Compounds of Formulae I-V(a): Activity

T1 sequence (P49327 whole entry): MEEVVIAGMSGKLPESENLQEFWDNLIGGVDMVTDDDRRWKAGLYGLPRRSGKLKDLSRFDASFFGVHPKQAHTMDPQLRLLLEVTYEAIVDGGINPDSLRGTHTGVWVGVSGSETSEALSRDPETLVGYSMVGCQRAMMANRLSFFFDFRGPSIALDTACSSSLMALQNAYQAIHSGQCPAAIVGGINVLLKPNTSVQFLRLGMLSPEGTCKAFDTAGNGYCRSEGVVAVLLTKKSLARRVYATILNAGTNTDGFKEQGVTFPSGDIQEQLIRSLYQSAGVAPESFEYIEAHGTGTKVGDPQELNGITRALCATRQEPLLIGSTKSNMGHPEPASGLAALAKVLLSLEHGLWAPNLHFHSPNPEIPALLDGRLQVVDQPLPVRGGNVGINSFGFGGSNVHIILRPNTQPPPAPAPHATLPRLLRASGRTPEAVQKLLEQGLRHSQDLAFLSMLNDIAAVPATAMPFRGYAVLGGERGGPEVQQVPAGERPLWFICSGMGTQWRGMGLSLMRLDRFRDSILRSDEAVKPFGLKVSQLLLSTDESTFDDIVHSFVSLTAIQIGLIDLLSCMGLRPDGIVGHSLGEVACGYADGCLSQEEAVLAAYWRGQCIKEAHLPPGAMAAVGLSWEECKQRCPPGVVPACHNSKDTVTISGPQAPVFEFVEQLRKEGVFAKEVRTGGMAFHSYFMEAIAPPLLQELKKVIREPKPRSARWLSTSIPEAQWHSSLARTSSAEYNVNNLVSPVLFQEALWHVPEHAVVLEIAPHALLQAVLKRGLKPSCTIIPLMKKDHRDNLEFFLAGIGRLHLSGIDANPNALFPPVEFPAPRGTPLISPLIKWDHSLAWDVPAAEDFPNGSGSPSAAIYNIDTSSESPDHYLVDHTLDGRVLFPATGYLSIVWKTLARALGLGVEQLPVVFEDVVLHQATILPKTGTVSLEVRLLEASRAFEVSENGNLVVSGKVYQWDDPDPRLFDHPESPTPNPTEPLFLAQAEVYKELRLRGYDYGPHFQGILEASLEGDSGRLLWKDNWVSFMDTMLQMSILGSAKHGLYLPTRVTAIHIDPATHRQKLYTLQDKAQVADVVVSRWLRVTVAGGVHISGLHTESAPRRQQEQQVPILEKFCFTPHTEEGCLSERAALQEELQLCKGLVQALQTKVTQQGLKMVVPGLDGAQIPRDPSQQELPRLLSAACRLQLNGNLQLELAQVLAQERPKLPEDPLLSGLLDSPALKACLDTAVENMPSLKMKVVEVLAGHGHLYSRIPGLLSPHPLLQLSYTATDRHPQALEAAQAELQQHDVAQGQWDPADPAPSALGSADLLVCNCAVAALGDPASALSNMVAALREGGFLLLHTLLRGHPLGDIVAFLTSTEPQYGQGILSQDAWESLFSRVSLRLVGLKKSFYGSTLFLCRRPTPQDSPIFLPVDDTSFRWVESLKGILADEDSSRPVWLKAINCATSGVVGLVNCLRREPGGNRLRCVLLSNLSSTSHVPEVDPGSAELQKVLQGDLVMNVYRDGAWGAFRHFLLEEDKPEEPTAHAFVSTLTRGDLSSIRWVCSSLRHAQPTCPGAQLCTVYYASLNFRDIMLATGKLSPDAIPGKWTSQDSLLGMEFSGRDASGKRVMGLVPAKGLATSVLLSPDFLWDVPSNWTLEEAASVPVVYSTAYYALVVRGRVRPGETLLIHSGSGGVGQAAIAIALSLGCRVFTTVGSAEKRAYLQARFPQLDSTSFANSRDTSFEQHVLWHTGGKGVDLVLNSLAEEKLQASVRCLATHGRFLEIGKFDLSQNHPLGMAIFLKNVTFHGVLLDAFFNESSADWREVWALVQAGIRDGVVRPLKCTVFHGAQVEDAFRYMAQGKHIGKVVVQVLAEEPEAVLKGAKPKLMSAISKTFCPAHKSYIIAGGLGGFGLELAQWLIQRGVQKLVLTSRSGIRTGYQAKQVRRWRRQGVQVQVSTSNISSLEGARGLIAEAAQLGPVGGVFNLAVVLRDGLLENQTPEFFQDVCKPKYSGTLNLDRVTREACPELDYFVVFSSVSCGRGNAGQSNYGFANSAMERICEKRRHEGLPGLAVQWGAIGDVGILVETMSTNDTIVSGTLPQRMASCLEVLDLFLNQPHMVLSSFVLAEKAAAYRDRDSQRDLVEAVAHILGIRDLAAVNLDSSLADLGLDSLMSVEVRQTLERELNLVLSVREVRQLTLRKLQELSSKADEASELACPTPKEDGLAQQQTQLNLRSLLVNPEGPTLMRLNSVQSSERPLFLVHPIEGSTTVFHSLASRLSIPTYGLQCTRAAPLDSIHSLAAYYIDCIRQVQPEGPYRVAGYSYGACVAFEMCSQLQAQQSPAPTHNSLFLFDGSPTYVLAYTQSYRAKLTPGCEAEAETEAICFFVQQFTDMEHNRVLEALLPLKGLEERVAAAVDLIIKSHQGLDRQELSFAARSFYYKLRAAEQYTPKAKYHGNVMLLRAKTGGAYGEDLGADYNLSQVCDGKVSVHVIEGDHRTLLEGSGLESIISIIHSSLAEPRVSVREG

Compound | pIC50 [1] | pIC50 [2]
COCCNc1c(-c2ccc(OC3CCN(C(=O)[C@H]4CCCO4)CC3)cc2)ccc2cccnc12 [Example 327, (4-{4-[8-(2-Methoxyethylamino)-quinolin-7-yl]-phenoxy}-piperidin-1-yl)-(R)-tetrahydrofuran-2-yl-methanone] | 7.00 to 9.00 | 
Cc1c(-c2ccc(OC3CCN(C(=O)N4CCN(C(C)C)CC4)CC3)cc2)ccc2cccnc12 [Example 532, (4-Isopropylpiperazin-1-yl)-[4-[4-(8-methyl-7-quinolyl)phenoxy]-1-piperidyl]methanone, HCl] |  | 5.00 to 6.00
CCC(=O)N1CCC(Oc2ccc(-c3ccc4cccnc4c3OC(C)C)cc2)CC1 [Example 169, 1-{4-[4-(8-Isopropoxyquinolin-7-yl)-phenoxy]-piperidin-1-yl}-propan-1-one, HCl] | 6.00 to 7.00 | 
Cc1c(-c2ccc(O[C@H]3C[C@H]4CC[C@@H](C3)N4C(=O)[C@H]3CCCO3)cc2)ccc2cccnc12 [Example 371, {endo-3-[4-(8-Methylquinolin-7-yl)-phenoxy]-8-aza-bicyclo[3.2.1]oct-8-yl}-(R)-tetrahydrofuran-2-yl-methanone, HCl] | 7.00 to 9.00 | 
CCC(=O)N1CCC(Oc2ccc(-c3ccc4cccnc4c3F)cc2)CC1 [Example 22] | 7.00 to 9.00 | 
Cc1c(-c2ccc(OC3CCN(C(=O)NCCc4c[nH]cn4)CC3)cc2)ccc2cccnc12 [Example 548, N-[2-(1H-Imidazol-4-yl)ethyl]-4-[4-(8-methyl-7-quinolyl)phenoxy]piperidine-1-carboxamide, 2HCl] |  | 5.00 to 6.00
O=C(C1CC1)N1CCC(Oc2ccc(-c3cncc(Oc4ccccc4)c3)cc2)CC1 [Example 399, Cyclopropyl-{4-[4-(5-phenoxy-pyridin-3-yl)-phenoxy]-piperidin-1-yl}-methanone, HCl] | 5.00 to 6.00 | 
COc1cc2cc(-c3ccc(OC4CCN(C(=O)C5CC5)CC4)cc3)ccc2cn1 [Example 416, Cyclopropyl-{4-[4-(3-methoxyisoquinolin-6-yl)-phenoxy]-piperidin-1-yl}-methanone] | 6.00 to 7.00 | 
CCC(=O)N1CCC(Oc2ccc(-c3ccc4nccn4c3C)cc2)CC1 [Example 286, 1-{4-[4-(5-Methylimidazo[1,2-a]pyridin-6-yl)-phenoxy]-piperidin-1-yl}-propan-1-one] | 5.00 to 6.00 | 
COc1cc(OC2CCN(C(=O)C3CC3)CC2)ccc1-c1cnc2ccccc2c1 [Example 211, Cyclopropyl-[4-(3-methoxy-4-quinolin-3-yl-phenoxy)-piperidin-1-yl]-methanone] | 5.00 to 6.00 | 
CCC(=O)N1CCC(Oc2ccc(-c3ccc4c(C5CC5)nccc4c3)cc2)CC1 [Example 439, 1-{4-[4-(1-Cyclopropyl-isoquinolin-6-yl)-phenoxy]-piperidin-1-yl}-propan-1-one] | 5.00 to 6.00 | 
O=C(C1CCC1)N1CCC(Oc2ccc(-c3ccc4cccnc4c3F)cc2)CC1 [Example 24, Cyclobutyl-{4-[4-(8-fluoroquinolin-7-yl)-phenoxy]-piperidin-1-yl}-methanone] | 7.00 to 9.00 | 
COc1ccc2ncc(-c3ccc(OC4CCN(C(=O)C5CC5)CC4)cc3)cc2c1 [Example 54, Cyclopropyl-{4-[4-(6-methoxyquinolin-3-yl)-phenoxy]-piperidin-1-yl}-methanone] | 6.00 to 7.00 | 
O=C1COC(C(=O)N2CCC(Oc3ccc(-c4cnc5ccccc5c4)cc3)CC2)C1 (centres unmarked) [Example 166, 5-[4-(4-Quinolin-3-yl-phenoxy)-piperidine-1-carbonyl]dihydrofuran-3-one] | 5.00 to 6.00 | 
C[C@@H]1C[C@H](C)[C@H](C(=O)N2CCC(Oc3ccc(-c4cnc5ccccc5c4)cc3)CC2)O1 (racemic) [Example 155, ((2R,3S,5R)/(2S,3R,5S)-3,5-Dimethyl-tetrahydrofuran-2-yl)-[4-(4-quinolin-3-yl-phenoxy)-piperidin-1-yl]-methanone, HCl] | 5.00 to 6.00 | 
CCC(=O)N1CCC(Oc2ccc(-c3cnc4c(C)cccc4c3)cc2)CC1 [Example 486, 1-{4-[4-(8-Methylquinolin-3-yl)-phenoxy]-piperidin-1-yl}-propan-1-one, HCl] | 7.00 to 9.00 | 
CCC(=O)N1CCC(Oc2ccc(-c3cnc4ccccc4c3)c(OC)c2)CC1 [Example 209, 1-[4-(3-Methoxy-4-quinolin-3-yl-phenoxy)-piperidin-1-yl]-propan-1-one] | 5.00 to 6.00 | 
Cc1c(-c2ccc(OC3CCN(C(=O)C4CCCO4)CC3C)cc2)ccc2cccnc12 (stereo in doubt) [Example 377, {3-Methyl-4-[4-(8-methylquinolin-7-yl)-phenoxy]-piperidin-1-yl}-(R)-tetrahydrofuran-2-yl-methanone, TFA salt] | 7.00 to 9.00 | 
CCC(=O)N1CCC(Oc2ccc(-c3ccc4cnc(Cl)cc4c3)cc2)CC1 [Example 413, 1-{4-[4-(3-Chloroisoquinolin-6-yl)-phenoxy]-piperidin-1-yl}-propan-1-one] | 5.00 to 6.00 | 

Compound | pIC50 [1] | pIC50 [2]
CONC(=O)N1CCC(Oc2ccc(-c3ccc4nccn4c3C)cc2)CC1 [Example 611, N-Methoxy-4-[4-(5-methylimidazo[1,2-a]pyridin-6-yl)phenoxy]piperidine-1-carboxamide] |  | 5.00 to 6.00
Cc1c(-c2ccc(OC3CCN(C(=O)NC(C)C)CC3)cc2)ccc2cccnc12 [Example 92, N-Isopropyl-4-[4-(8-methyl-7-quinolyl)phenoxy]piperidine-1-carboxamide] | 5.00 to 6.00 | 
CCC(=O)N1CCC(Oc2ccc(-c3cncc(-c4ccccc4)c3)cc2)CC1 [Example 382, 1-{4-[4-(5-Phenylpyridin-3-yl)-phenoxy]-piperidin-1-yl}-propan-1-one] | 5.00 to 6.00 | 
CC(C)C(=O)N1CCC(Oc2ccc(-c3cnc4ccccc4c3)cc2F)CC1 [Example 7, 1-[4-(2-Fluoro-4-quinolin-3-yl-phenoxy)-piperidin-1-yl]-2-methyl-propan-1-one] | 7.00 to 9.00 | 
CCC(=O)N1CCC(Oc2ccc(-c3ccc4cccnc4c3)cc2)C1 (stereo in doubt) [Example 342, (S)-1-(3-(4-(Quinolin-7-yl)phenoxy)pyrrolidin-1-yl)propan-1-one, HCl] | 5.00 to 6.00 | 
Cc1c(-c2ccc(O[C@@H]3CCN(C(=O)[C@@H]4CCCO4)C[C@H]3F)cc2)ccc2cccnc12 (racemic) [Example 372, {(trans)-3-Fluoro-4-[4-(8-methylquinolin-7-yl)-phenoxy]-piperidin-1-yl}-(R)-tetrahydrofuran-2-yl-methanone, HCl] | 7.00 to 9.00 | 
Cc1c(-c2ccc(OC3CCN(C(=O)C4(N)CCC4)CC3)cc2)ccc2cccnc12 [Example 627, (1-Aminocyclobutyl)-[4-[4-(8-methyl-7-quinolyl)phenoxy]-1-piperidyl]-methanone] |  | 5.00 to 6.00
CN(c1ccc(-c2cnc3ccccc3c2)cc1)C1CCN(C(=O)[C@H]2CCCO2)CC1 [Example 528, {4-[Methyl-(4-quinolin-3-yl-phenyl)-amino]-piperidin-1-yl}-(R)-tetrahydrofuran-2-yl-methanone, HCl] | 6.00 to 7.00 | 
Cc1c(-c2ccc(OC3CCN(C(=O)Nc4cccnc4)CC3)cc2)ccc2nccn12 [Example 596, 4-[4-(5-Methylimidazo[1,2-a]pyridin-6-yl)phenoxy]-N-(3-pyridyl)piperidine-1-carboxamide] |  | 7.00 to 9.00
CCC(=O)N1CCC(Oc2ccc(-c3ccc4cccnc4c3Cl)cc2)CC1 [Example 261, 1-{4-[4-(8-Chloroquinolin-7-yl)-phenoxy]-piperidin-1-yl}-propan-1-one] | 7.00 to 9.00 | 
O=C([C@H]1CCCO1)N1CCC(Oc2ccc(-c3cnc4ccccc4c3Cl)cc2)CC1 [Example 71, {4-[4-(4-Chloroquinolin-3-yl)-phenoxy]-piperidin-1-yl}-(R)-tetrahydro-furan-2-yl-methanone] | 7.00 to 9.00 | 
CCC(=O)N1CCC(Oc2ccc(-c3ccc4cnc(OC)cc4c3)cc2)CC1 [Example 415, 1-{4-[4-(3-Methoxyisoquinolin-6-yl)-phenoxy]-piperidin-1-yl}-propan-1-one] | 5.00 to 6.00 | 
Cc1cc(-c2cnc3ccccc3c2)ccc1OC1CCN(C(=O)C2CC2)CC1 [Example 214, Cyclopropyl-[4-(2-methyl-4-quinolin-3-yl-phenoxy)-piperidin-1-yl]-methanone] | 5.00 to 6.00 | 
CCNC(=O)N1CCC(Oc2ccc(-c3ccn4ccnc4c3C)cc2)CC1 [Example 629, N-Ethyl-4-[4-(8-methylimidazo[1,2-a]pyridin-7-yl)phenoxy]piperidine-1-carboxamide, HCl] |  | 5.00 to 6.00
O=C(C1CC1)N1CCC(Oc2ccc(-c3ccc4cccnc4c3Cl)cc2F)CC1 [Example 222, {4-[4-(8-Chloroquinolin-7-yl)-2-fluorophenoxy]-piperidin-1-yl}-cyclopropyl-methanone] | 7.00 to 9.00 | 
CCNC(=O)N1CCC(Oc2ccc(-c3ccc4ccnn4c3C)cc2)CC1 [Example 536, N-Ethyl-4-[4-(7-methylpyrazolo[1,5-a]pyridin-6-yl)phenoxy]piperidine-1-carboxamide] |  | 5.00 to 6.00
O=C(C1CC1)N1CCC(Oc2cc(F)c(-c3cnc4ccccc4c3)cc2F)CC1 [Example 217, Cyclopropyl-[4-(2,5-difluoro-4-quinolin-3-yl-phenoxy)-piperidin-1-yl]-methanone] | 6.00 to 7.00 | 
Cc1c(-c2ccc(OC3CCN(C(=O)[C@H]4CCCO4)CC3)c(F)c2)cnc2ccccc12 [Example 230, {4-[2-Fluoro-4-(4-methylquinolin-3-yl)-phenoxy]-piperidin-1-yl}-(R)-tetrahydrofuran-2-yl-methanone] | 7.00 to 9.00 | 
CN(C)CCNc1c(-c2ccc(OC3CCN(C(=O)[C@H]4CCCO4)CC3)cc2)ccc2cccnc12 [Example 329, (4-{4-[8-(2-Dimethylaminoethylamino)-quinolin-7-yl]-phenoxy}-piperidin-1-yl)-(R)tetrahydrofuran-2-yl-methanone] | 7.00 to 9.00 | 
